The supplement of paper PMC10627819

Key:
Test in all cases: Bliss interaction score (quartile over a dose matrix) (fitness difference); higher = more antagonism (negative = synergy)
[1] = system: B. subtilis 168
In short: (§1)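 Growth in each well was taken as OD595 at entry into stationary phase. Dividing by the plate's robust no-drug mean and capping at 1 gave fitness, and single-drug fitness was inferred from the combination data. The Bliss score, observed minus product-expected fitness, is summarised by quartiles over technical, biological and donor/recipient replicates.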

[2] = system: S. aureus DSM 20231
In short: as §1

[3] = system: S. aureus Newman
In short: as §1

[4] = system: S. pneumoniae D39V
In short: as §1
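Further: first quartile when negative (synergy) and third quartile when positive (antagonism).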

SMILES	Bliss interaction score [1]	Bliss interaction score [2]	Bliss interaction score [3]	Bliss interaction score [4]	Bliss interaction score ([1]; main component drawn)	Bliss interaction score ([2]; main component drawn)	Bliss interaction score ([3]; main component drawn)	Bliss interaction score ([4]; main component drawn)
CC[C@H]1OC(=O)[C@H](C)[C@@H](O[C@H]2C[C@@](C)(OC)[C@@H](O)[C@H](C)O2)[C@H](C)[C@@H](O[C@@H]2O[C@H](C)C[C@H](N(C)C)[C@H]2O)[C@](C)(O)C[C@@H](C)C(=O)[C@H](C)[C@@H](O)[C@]1(C)O [Erythromycin] + CC(=O)O[C@H]1C[C@@]2(C)[C@@H](C[C@@H](O)[C@H]3[C@@]4(C)CC[C@@H](O)[C@@H](C)[C@@H]4CC[C@@]32C)/C1=C(\CCC=C(C)C)C(=O)O [Fusidic acid]	-0.057	0.0374	-0.0241	-0.1				
CC[C@H]1OC(=O)[C@H](C)[C@@H](O[C@H]2C[C@@](C)(OC)[C@@H](O)[C@H](C)O2)[C@H](C)[C@@H](O[C@@H]2O[C@H](C)C[C@H](N(C)C)[C@H]2O)[C@](C)(O)C[C@@H](C)C(=O)[C@H](C)[C@@H](O)[C@]1(C)O [Erythromycin] + CC(C1CCC(C(O1)OC2C(CC(C(C2O)OC3C(C(C(CO3)(C)O)NC)O)N)N)N)NC [Gentamicin]					0.118	0.0847	0.0427	0.0656
CC[C@H]1OC(=O)[C@H](C)[C@@H](O[C@H]2C[C@@](C)(OC)[C@@H](O)[C@H](C)O2)[C@H](C)[C@@H](O[C@@H]2O[C@H](C)C[C@H](N(C)C)[C@H]2O)[C@](C)(O)C[C@@H](C)C(=O)[C@H](C)[C@@H](O)[C@]1(C)O [Erythromycin] + CCC(C)C1C(=O)NC(=C)C(=O)NC(C(=O)NC(CSCC(C(=O)N1)NC(=O)/C(=C/C)/NC(=O)C(C(C)CC)N)C(=O)NC2C(SCC(NC(=O)CNC(=O)C3CCCN3C2=O)C(=O)NC(CCCCN)C(=O)NC4C(SCC(NC(=O)CNC(=O)C(NC(=O)C(NC(=O)C(NC(=O)CNC4=O)C)CC(C)C)CCSC)C(=O)NC(CC(=O)N)C(=O)NC(CCSC)C(=O)NC(CCCCN)C(=O)NC5C(SCC6C(=O)NC(C(=O)NC(CSC(C(C(=O)N6)NC(=O)C(NC5=O)C)C)C(=O)NC(CO)C(=O)NC(C(C)CC)C(=O)NC(CC7=CN=CN7)C(=O)NC(C(C)C)C(=O)NC(=C)C(=O)NC(CCCCN)C(=O)O)CC8=CN=CN8)C)C)C)CC(C)C [Nisin]					0.0295	-0.029	-0.028	-0.0423
CC[C@H]1OC(=O)[C@H](C)[C@@H](O[C@H]2C[C@@](C)(OC)[C@@H](O)[C@H](C)O2)[C@H](C)[C@@H](O[C@@H]2O[C@H](C)C[C@H](N(C)C)[C@H]2O)[C@](C)(O)C[C@@H](C)C(=O)[C@H](C)[C@@H](O)[C@]1(C)O [Erythromycin] + CCCCCCCCCC(=O)N[C@@H]1[C@H]([C@@H]([C@H](O[C@H]1OC2=C3C=C4C=C2OC5=C(C=C(C=C5)[C@H]([C@H]6C(=O)N[C@@H](C7=C(C(=CC(=C7)O)OC8[C@H]([C@H]([C@@H]([C@H](O8)CO)O)O)O)C9=C(C=CC(=C9)[C@H](C(=O)N6)NC(=O)[C@@H]4NC(=O)[C@@H]1C2=CC(=CC(=C2)OC2=C(C=CC(=C2)[C@H](C(=O)N[C@H](CC2=CC(=C(O3)C=C2)Cl)C(=O)N1)N)O)O)O)C(=O)O)O[C@H]1[C@@H]([C@H]([C@@H]([C@H](O1)CO)O)O)NC(=O)C)Cl)CO)O)O [Teicoplanin]					-0.046	0.0621	0.154	0.0581
CC[C@H]1OC(=O)[C@H](C)[C@@H](O[C@H]2C[C@@](C)(OC)[C@@H](O)[C@H](C)O2)[C@H](C)[C@@H](O[C@@H]2O[C@H](C)C[C@H](N(C)C)[C@H]2O)[C@](C)(O)C[C@@H](C)C(=O)[C@H](C)[C@@H](O)[C@]1(C)O [Erythromycin] + CCC[C@@H]1C[C@@H](C(=O)N[C@@H]([C@H]2O[C@H](SC)[C@H](O)[C@@H](O)[C@H]2O)[C@@H](C)O)N(C)C1 [Lincomycin]	0.107	-0.0609	-0.1	0.0856				
CC[C@H]1OC(=O)[C@H](C)[C@@H](O[C@H]2C[C@@](C)(OC)[C@@H](O)[C@H](C)O2)[C@H](C)[C@@H](O[C@@H]2O[C@H](C)C[C@H](N(C)C)[C@H]2O)[C@](C)(O)C[C@@H](C)C(=O)[C@H](C)[C@@H](O)[C@]1(C)O [Erythromycin] + CCN(CC)CCOC(=O)c1ccc(N)cc1 [Procaine]	-0.0671	-0.0573	0.0663	-0.048				
CC[C@H]1OC(=O)[C@H](C)[C@@H](O[C@H]2C[C@@](C)(OC)[C@@H](O)[C@H](C)O2)[C@H](C)[C@@H](O[C@@H]2O[C@H](C)C[C@H](N(C)C)[C@H]2O)[C@](C)(O)C[C@@H](C)C(=O)[C@H](C)[C@@H](O)[C@]1(C)O [Erythromycin] + CC[C@H]1OC(=O)[C@H](C)C(=O)[C@H](C)[C@@H](O[C@@H]2O[C@H](C)C[C@H](N(C)C)[C@H]2O)[C@](C)(OC)C[C@@H](C)C(=O)[C@H](C)[C@H]2N(CCCCn3cnc(-c4cccnc4)c3)C(=O)O[C@]12C [Telithromycin]	-0.0361	-0.0237	-0.0283	0.0262				
CC[C@H]1OC(=O)[C@H](C)[C@@H](O[C@H]2C[C@@](C)(OC)[C@@H](O)[C@H](C)O2)[C@H](C)[C@@H](O[C@@H]2O[C@H](C)C[C@H](N(C)C)[C@H]2O)[C@](C)(O)C[C@@H](C)C(=O)[C@H](C)[C@@H](O)[C@]1(C)O [Erythromycin] + CN1C2=CC=CC=C2N=C3C1=CC=CC3=O [Pyocyanin]	0.0449	-0.0317	-0.051	-0.0454				
CC[C@H]1OC(=O)[C@H](C)[C@@H](O[C@H]2C[C@@](C)(OC)[C@@H](O)[C@H](C)O2)[C@H](C)[C@@H](O[C@@H]2O[C@H](C)C[C@H](N(C)C)[C@H]2O)[C@](C)(O)C[C@@H](C)C(=O)[C@H](C)[C@@H](O)[C@]1(C)O [Erythromycin] + CN(C)C(=O)C(CCN1CCC(O)(c2ccc(Cl)cc2)CC1)(c1ccccc1)c1ccccc1 [Loperamide]	0.0381	0.0888	-0.039	0.116				
CC[C@H]1OC(=O)[C@H](C)[C@@H](O[C@H]2C[C@@](C)(OC)[C@@H](O)[C@H](C)O2)[C@H](C)[C@@H](O[C@@H]2O[C@H](C)C[C@H](N(C)C)[C@H]2O)[C@](C)(O)C[C@@H](C)C(=O)[C@H](C)[C@@H](O)[C@]1(C)O [Erythromycin] + CN(C)c1cc(NC(=O)CNC(C)(C)C)c(O)c2c1C[C@H]1C[C@H]3[C@H](N(C)C)C(O)=C(C(N)=O)C(=O)[C@@]3(O)C(O)=C1C2=O [Tigecycline]	-0.0505	-0.0257	-0.0253	-0.0975				
CC[C@H]1OC(=O)[C@H](C)[C@@H](O[C@H]2C[C@@](C)(OC)[C@@H](O)[C@H](C)O2)[C@H](C)[C@@H](O[C@@H]2O[C@H](C)C[C@H](N(C)C)[C@H]2O)[C@](C)(O)C[C@@H](C)C(=O)[C@H](C)[C@@H](O)[C@]1(C)O [Erythromycin] + CN(N=O)C(=O)N[C@@H](C=O)[C@@H](O)[C@H](O)[C@H](O)CO [Streptozotocin]	-0.0271	-0.0271	-0.0533	-0.0459				
CC[C@H]1OC(=O)[C@H](C)[C@@H](O[C@H]2C[C@@](C)(OC)[C@@H](O)[C@H](C)O2)[C@H](C)[C@@H](O[C@@H]2O[C@H](C)C[C@H](N(C)C)[C@H]2O)[C@](C)(O)C[C@@H](C)C(=O)[C@H](C)[C@@H](O)[C@]1(C)O [Erythromycin] + CN[C@@H]1[C@H](O)[C@H](NC)[C@H]2O[C@@]3(O)C(=O)C[C@@H](C)O[C@H]3O[C@@H]2[C@H]1O [Spectinomycin]	-0.093	-0.0696	-0.172	-0.0547				
CC[C@H]1OC(=O)[C@H](C)[C@@H](O[C@H]2C[C@@](C)(OC)[C@@H](O)[C@H](C)O2)[C@H](C)[C@@H](O[C@@H]2O[C@H](C)C[C@H](N(C)C)[C@H]2O)[C@](C)(O)C[C@@H](C)C(=O)[C@H](C)[C@@H](O)[C@]1(C)O [Erythromycin] + CN[C@@H]1[C@H](O[C@H]2[C@H](O[C@H]3[C@H](O)[C@@H](O)[C@H](N=C(N)N)[C@@H](O)[C@@H]3N=C(N)N)O[C@@H](C)[C@]2(O)C=O)O[C@@H](CO)[C@H](O)[C@H]1O [Streptomycin]	0.0844	0.0256	-0.0695	-0.0481				
CC[C@H]1OC(=O)[C@H](C)[C@@H](O[C@H]2C[C@@](C)(OC)[C@@H](O)[C@H](C)O2)[C@H](C)[C@@H](O[C@@H]2O[C@H](C)C[C@H](N(C)C)[C@H]2O)[C@](C)(O)C[C@@H](C)C(=O)[C@H](C)[C@@H](O)[C@]1(C)O [Erythromycin] + CN[C@H](CC(C)C)C(=O)N[C@H]1C(=O)N[C@@H](CC(N)=O)C(=O)N[C@H]2C(=O)N[C@H]3C(=O)N[C@H](C(=O)N[C@H](C(=O)O)c4cc(O)cc(O)c4-c4cc3ccc4O)[C@H](O)c3ccc(c(Cl)c3)Oc3cc2cc(c3O[C@@H]2O[C@H](CO)[C@@H](O)[C@H](O)[C@H]2O[C@H]2C[C@](C)(N)[C@H](O)[C@H](C)O2)Oc2ccc(cc2Cl)[C@H]1O [Vancomycin]	0.035	0.0298	-0.0375	0.0403				
CC[C@H]1OC(=O)[C@H](C)[C@@H](O[C@H]2C[C@@](C)(OC)[C@@H](O)[C@H](C)O2)[C@H](C)[C@@H](O[C@@H]2O[C@H](C)C[C@H](N(C)C)[C@H]2O)[C@](C)(O)C[C@@H](C)C(=O)[C@H](C)[C@@H](O)[C@]1(C)O [Erythromycin] + CN[C@H](CC(C)C)C(=O)N[C@H]1C(=O)N[C@@H](CC(N)=O)C(=O)N[C@H]2C(=O)N[C@H]3C(=O)N[C@H](C(=O)N[C@H](C(=O)O)c4cc(O)cc(O)c4-c4cc3ccc4O)[C@H](O[C@H]3C[C@](C)(N)[C@@H](O)[C@H](C)O3)c3ccc(c(Cl)c3)Oc3cc2cc(c3O[C@@H]2O[C@H](CO)[C@@H](O)[C@H](O)[C@H]2O[C@H]2C[C@](C)(NCc3ccc(-c4ccc(Cl)cc4)cc3)[C@@H](O)[C@H](C)O2)Oc2ccc(cc2Cl)[C@H]1O [Oritavancin]	0.0299	-0.023	0.0605	0.046				
CC[C@H]1OC(=O)[C@H](C)[C@@H](O[C@H]2C[C@@](C)(OC)[C@@H](O)[C@H](C)O2)[C@H](C)[C@@H](O[C@@H]2O[C@H](C)C[C@H](N(C)C)[C@H]2O)[C@](C)(O)C[C@@H](C)C(=O)[C@H](C)[C@@H](O)[C@]1(C)O [Erythromycin] + CO[C@@H]1[C@@H](OC(N)=O)[C@@H](O)[C@H](Oc2ccc3c(O)c(NC(=O)c4ccc(O)c(CC=C(C)C)c4)c(=O)oc3c2C)OC1(C)C [Novobiocin]	-0.0636	-0.0443	0.0699	-0.114				
CC[C@H]1OC(=O)[C@H](C)[C@@H](O[C@H]2C[C@@](C)(OC)[C@@H](O)[C@H](C)O2)[C@H](C)[C@@H](O[C@@H]2O[C@H](C)C[C@H](N(C)C)[C@H]2O)[C@](C)(O)C[C@@H](C)C(=O)[C@H](C)[C@@H](O)[C@]1(C)O [Erythromycin] + CO[C@@]12[C@H](COC(N)=O)C3=C(C(=O)C(C)=C(N)C3=O)N1C[C@@H]1N[C@@H]12 [MitomycinC]	0.0799	-0.048	0.0538	-0.0897				
